PubChem BioAssay AID1745844 (Carcinogenic Potency Database (CPDB), 2022)

Tested on: rodent lifetime carcinogenesis bioassay, tumor incidence TD50
Assay: carcinogenic potency in animals, long-term in vivo studies, CPDB compilation (AID 1745844)

## CC1CO1 (centres undefined)
mouse, strain B6C3F1, females, inhaled, site: all sites, lesion: hemangioma + hemangiosarcoma, dosed 103 weeks, study length 104 weeks
  TD50: 863 mg/kg/day
mouse, strain B6C3F1, females, inhaled, site: all sites, lesion: hemangioma, dosed 103 weeks, study length 104 weeks
  TD50: 1810 mg/kg/day
mouse, strain B6C3F1, females, inhaled, site: all sites, lesion: hemangiosarcoma, dosed 103 weeks, study length 104 weeks
  TD50: 1610 mg/kg/day
mouse, strain B6C3F1, females, inhaled, site: any site (literature study), lesion: several types, types named in the paper, dosed 103 weeks, study length 104 weeks
  TD50: 226 mg/kg/day
mouse, strain B6C3F1, females, inhaled, site: liver, lesion: hepatocellular adenoma + hepatocellular carcinoma + neoplastic nodule, dosed 103 weeks, study length 104 weeks
  TD50: 979 mg/kg/day
mouse, strain B6C3F1, females, inhaled, site: lung, lesion: alveolar/bronchiolar adenoma + alveolar/bronchiolar carcinoma, dosed 103 weeks, study length 104 weeks
  TD50: 588 mg/kg/day
mouse, strain B6C3F1, females, inhaled, site: lung, lesion: alveolar/bronchiolar adenoma, dosed 103 weeks, study length 104 weeks
  TD50: 588 mg/kg/day
mouse, strain B6C3F1, females, inhaled, site: mammary gland, lesion: adenocarcinoma + adenosquamous carcinoma, dosed 103 weeks, study length 104 weeks
  TD50: 1260 mg/kg/day
mouse, strain B6C3F1, females, inhaled, site: mammary gland, lesion: adenosquamous carcinoma, dosed 103 weeks, study length 104 weeks
  TD50: 2770 mg/kg/day
mouse, strain B6C3F1, females, inhaled, site: nasal cavity, lesion: hemangioma + hemangiosarcoma, dosed 103 weeks, study length 104 weeks
  TD50: 1210 mg/kg/day
mouse, strain B6C3F1, females, inhaled, site: nasal cavity, lesion: hemangioma, dosed 103 weeks, study length 104 weeks
  TD50: 2020 mg/kg/day
mouse, strain B6C3F1, males, inhaled, site: all sites, lesion: hemangioma + hemangiosarcoma, dosed 103 weeks, study length 104 weeks
  TD50: 753 mg/kg/day
mouse, strain B6C3F1, males, inhaled, site: any site (literature study), lesion: several types, types named in the paper, dosed 103 weeks, study length 104 weeks
  TD50: 722 mg/kg/day
mouse, strain B6C3F1, males, inhaled, site: nasal cavity, lesion: hemangioma + hemangiosarcoma, dosed 103 weeks, study length 104 weeks
  TD50: 732 mg/kg/day
mouse, strain B6C3F1, males, inhaled, site: nasal cavity, lesion: hemangioma, dosed 103 weeks, study length 104 weeks
  TD50: 1470 mg/kg/day
mouse, strain B6C3F1, males, inhaled, site: nasal cavity, lesion: hemangiosarcoma, dosed 103 weeks, study length 104 weeks
  TD50: 1610 mg/kg/day
rat, strain Fischer 344, females, inhaled, site: any site (literature study), lesion: several types, types named in the paper, dosed 103 weeks, study length 104 weeks
  TD50: 124 mg/kg/day
rat, strain Fischer 344, females, inhaled, site: cervix uteri + uterus, lesion: endometrial stromal polyp + endometrial stromal sarcoma, dosed 103 weeks, study length 104 weeks
  TD50: 156 mg/kg/day
rat, strain Fischer 344, females, inhaled, site: nasal cavity, lesion: papillary adenoma, dosed 103 weeks, study length 104 weeks
  TD50: 732 mg/kg/day
rat, strain Fischer 344, males, inhaled, site: adrenal gland, lesion: pheochromocytoma, dosed 101 weeks, study length 104 weeks
  TD50: 35.1 mg/kg/day
rat, strain Fischer 344, males, inhaled, site: any site (literature study), lesion: several types, types named in the paper, dosed 103 weeks, study length 104 weeks
  TD50: 220 mg/kg/day
rat, strain Fischer 344, males, inhaled, site: liver, lesion: hepatocellular adenoma + hepatocellular carcinoma + neoplastic nodule, dosed 103 weeks, study length 104 weeks
  TD50: 528 mg/kg/day
rat, strain Fischer 344, males, inhaled, site: liver, lesion: hepatocellular carcinoma, dosed 101 weeks, study length 104 weeks
  TD50: 2960 mg/kg/day
rat, strain Fischer 344, males, inhaled, site: nasal cavity, lesion: papillary adenoma, dosed 103 weeks, study length 104 weeks
  TD50: 826 mg/kg/day
rat, strain Sprague-Dawley, females, by gavage, site: forestomach, lesion: squamous-cell carcinoma, dosed 109 weeks, study length 150 weeks
  TD50: 44.3 mg/kg/day
rat, strain Sprague-Dawley, females, by gavage, site: stomach, lesion: several types, types named in the paper, dosed 109 weeks, study length 150 weeks
  TD50: 39.5 mg/kg/day
rat, strain Wistar-random, females, inhaled, site: any site (literature study), lesion: malignant tumor, dosed 123 weeks, study length 123 weeks
  TD50: 150 mg/kg/day
rat, strain Wistar-random, females, inhaled, site: any site (literature study), lesion: one or several types, types not named, dosed 123 weeks, study length 123 weeks
  TD50: 25.7 mg/kg/day
rat, strain Wistar-random, females, inhaled, site: liver, lesion: cholangioma, dosed 123 weeks, study length 123 weeks
  TD50: 2460 mg/kg/day
rat, strain Wistar-random, females, inhaled, site: mammary gland, lesion: adenocarcinoma, dosed 123 weeks, study length 123 weeks
  TD50: 813 mg/kg/day
rat, strain Wistar-random, females, inhaled, site: mammary gland, lesion: fibroadenoma, dosed 123 weeks, study length 123 weeks
  TD50: 92.6 mg/kg/day
rat, strain Wistar-random, males, inhaled, site: any site (literature study), lesion: malignant tumor, dosed 124 weeks, study length 124 weeks
  TD50: 101 mg/kg/day
rat, strain Wistar-random, males, inhaled, site: any site (literature study), lesion: one or several types, types not named, dosed 124 weeks, study length 124 weeks
  TD50: 79.3 mg/kg/day
rat, strain Wistar-random, males, inhaled, site: respiratory system, lesion: carcinoma, dosed 124 weeks, study length 124 weeks
  TD50: 896 mg/kg/day
